In article PMC4429480, “Simultaneous quantification of proposed anti-malarial combination comprising of lumefantrine and CDRI 97–78 in rat plasma using the HPLC–ESI-MS/MS method: application to drug interaction study” (Malaria Journal, 2015):
Marks after values point to notes of the source that are not given here.

Key:
[1] = set-up: method as in PMID 21428247; conditions: cited from earlier work
[2] = Oral pharmacokinetic interaction study of LUME and 97-78 in rats (LC-ESI-MS/MS, non-compartmental analysis); assay type: in vivo, male Sprague–Dawley rats; conditions: for RB% (relative bioavailability = AUC coadmin/AUC control × 100): LUME 10 mg/kg oral with 97-78 70 mg/kg oral vs LUME alone; for AUC(0-inf) / AUC(0-t) / CL/F / Cmax / Tmax / Vd/F / half-life: male, Sprague-Dawley, rat, plasma, po, 10 mg/kg, rats n = 5, mean ± SD
Method: Study was performed in male Sprague–Dawley rats (n = 5, weight range 200–220 g). The rats were fasted overnight (14–16 hrs) prior to the experiment but given free access to water. Rats were divided into three groups (n = 5 each): two control groups (LUME, 10 mg/kg, oral, suspension in 0.25% sodium CMC and 97–78, 70 mg/kg, oral, suspension in 0.25% sodium CMC), and one co-administration group (70 mg/kg of oral 97–78 and 10 mg/kg of oral LUME). Blood samples (approximately 0.25 mL) were collected from the retro-orbital plexus into heparinized microfuge tubes at 0.25, 0.50, 1, 3, 6, 9, 11, 13, 15, 24, 48, 72, and 120 hrs post-dosing and plasma was harvested by centrifuging the blood at 15,000xg for 10 min and stored frozen at −70 ± 10°C until bio-analysis.
Plasma data were subjected to non-compartmental pharmacokinetics analysis using WinNonlin (version 5.1, Pharsight Corp, Mountain View, CA, USA). The observed maximum plasma concentration (Cmax) and the time to reach the maximum plasma concentration (Tmax) were obtained by visual inspection of the experimental data. Area under the plasma concentration-time curve from time zero to the last quantifiable concentration (AUC0-t) was calculated using linear trapezoidal rule. The total area under the plasma concentration–time curve from time zero to time infinity (AUC0-∞) was calculated as the sum of AUC0-t and Clast/kel, where, Clast represents the last quantifiable concentration and Kel represents the terminal phase rate constant. The apparent elimination half-life (t1/2) was calculated as 0.693/kel and the kel was estimated by linear regression of the plasma concentrations in the log-linear terminal phase. The clearance (Cl/F); where F represents the oral bioavailability, was calculated as dose/AUC, and the volume of distribution (Vd/F) was calculated as (Cl/F)/kel. The data is presented as a mean ± SD. The pharmacokinetic parameters were compared using Student’s t test. A P-value of <0.05 was considered significant. The relative bioavailability (RB %) was calculated as follows: RelativebioavailabilityRB%=AUCcoadimin/AUCcontrol×100

[3] = set-up: method as in PMID 21428247; conditions: cited from earlier work; remark: listed apart in the source
[4] = Stability of LUME and 97-63 in rat plasma (auto-sampler, bench top, freeze/thaw, freezer); assay type: in vitro ADME; conditions: n = 6
Method: All stability studies were conducted at two concentration levels, i.e., QC low and QC high, using six replicates at each concentration levels. […] The peak areas of analyte and IS obtained at initial cycle were used as the reference to determine the stability at subsequent points. The stability of LUME and 97–63 in the biomatrix during 6 hrs of exposure at room temperature in rat plasma (bench top (BT)) was determined at ambient temperature (25 ± 2°C). Freeze/thaw (FT) stability was evaluated up to three cycles. In each cycle, samples were frozen for at least 12 hrs at −70 ± 10°C. Freezer stability of both analytes in rat plasma was assessed by analysing the QC samples stored at −70 ± 10°C for at least 15 days. Samples were considered to be stable if assay values were within the acceptable limits of accuracy (i.e., ±15% deviation) and precision (i.e., ±15% RSD).

[5] = 10 ng/mL, 6 hrs (BT) bench top 25 ± 2°C
[6] = 10 ng/mL, 24 hrs (AS) auto-sampler at 4°C, processed samples
[7] = 10 ng/mL, FT-3 (three freeze/thaw cycles, −70 ± 10°C)
[8] = 400 ng/mL, 6 hrs (BT) bench top 25 ± 2°C
[9] = 400 ng/mL, 24 hrs (AS) auto-sampler at 4°C, processed samples
[10] = 400 ng/mL, FT-3 (three freeze/thaw cycles, −70 ± 10°C)
[11] = LUME 10 mg/kg with 97-78 70 mg/kg oral, rats
[12] = LUME 10 mg/kg oral co-administered with 97-78 70 mg/kg oral
[13] = control: LUME 10 mg/kg oral alone

For `C=C(c1ccc(OC(C)(C)COC(=O)CCC(=O)O)cc1)C1OCC2(OO1)C1CC3CC(C1)CC2C3` (centres unmarked) [97-78], the “conversion into active metabolite 97-63 in vivo” value [1] is listed as “rapidly and completely converted”, the “effect of LUME co-administration on PK parameters of 97-78 other than Tmax” value ([2]; 97-78 70 mg/kg with LUME 10 mg/kg oral, rats) is listed as “no significant effect” and the “conversion to 97-63 in plasma” value [3] is listed as “rapidly converted”.

In the case of `CCCCN(CCCC)CC(O)c1cc(Cl)cc2c1-c1ccc(Cl)cc1C2=Cc1ccc(Cl)cc1` (centres unmarked) [LUME, 2-dibutylamino-1-[2,7-dichloro-9-(4-chlorobenzylidene)-9H-fluoren-4-yl]-ethanol], the “Stability in rat plasma: Accuracy (%)” value [4, 5] is reported as 101.73%, the “Stability in rat plasma: Accuracy (%)” value [4, 6] is reported as 103.72% and the “Stability in rat plasma: Accuracy (%)” value ([4]; 10 ng/mL, 15 days at −70°C) is reported as 105.73%. For the same compound, the “Stability in rat plasma: Accuracy (%)” value [4, 7] was 99.48%, the “Stability in rat plasma: Accuracy (%)” value [4, 8] was 101.03% and the “Stability in rat plasma: Accuracy (%)” value [4, 9] was 101.51%. For the same compound, the “Stability in rat plasma: Accuracy (%)” value ([4]; 400 ng/mL, 15 days at −70°C) was 102.54%, the “Stability in rat plasma: Accuracy (%)” value [4, 10] was 106.78% and the “RB% (relative bioavailability = AUC coadmin/AUC control × 100)” value ([2]; rats) was 64.41^* %. For the same compound, the “RB% (relative bioavailability = AUC coadmin/AUC control × 100)” value ([2]; rats, listed as lumefantrine) was 64.41%, the “decrease of AUC0-∞ of orally administered LUME in presence of 97-78” value ([2]; LUME 10 mg/kg with 97-78 70 mg/kg oral vs LUME alone, rats, p <0.05) was 63.26% and the “effect of 97-78 co-administration on Cmax of LUME” value [2, 11] was “not significantly altered”. The “effect of 97-78 co-administration on Tmax of LUME” value [2, 11] was “not significantly altered”, the AUC(0-inf) [2, 12] was 11000 ± 660 ng·h/mL and the AUC(0-t) [2, 12] was 10600 ± 710 ng·h/mL. For the same compound, the CL/F [2, 12] was 15.2 mL/min/kg, the Cmax [2, 12] was 1920 ± 620 ng/mL and the Tmax [2, 12] was 4 ± 2.45 h. For the same compound, the Vd/F [2, 12] was 62.7 ± 8.4 L/kg, the half-life [2, 12] was 47.8 ± 6.48 h and the AUC(0-inf) [2, 13] was 17400 ± 3290 ng·h/mL. It also gave an AUC(0-t) [2, 13] of 16500 ± 2960 ng·h/mL, a CL/F [2, 13] of 9.83 mL/min/kg and a Cmax [2, 13] of 1810 ± 750 ng/mL. For the same compound, the Tmax [2, 13] was 3.75 ± 1.5 h, the Vd/F [2, 13] was 39.5 ± 6.26 L/kg and the half-life [2, 13] was 46.9 ± 6.52 h.

For `C=C(c1ccc(OC(C)(C)CO)cc1)C1OCC2(OO1)C1CC3CC(C1)CC2C3` (centres unmarked) [97-63], the “Stability in rat plasma: Accuracy (%)” value [4, 5] was 93.85%, the “Stability in rat plasma: Accuracy (%)” value [4, 6] was 104.67% and the “Stability in rat plasma: Accuracy (%)” value ([4]; 10 ng/mL, 15 days at −70°C) was 100.47%. The “Stability in rat plasma: Accuracy (%)” value [4, 7] was 98.16%, the “Stability in rat plasma: Accuracy (%)” value [4, 8] was 95.85% and the “Stability in rat plasma: Accuracy (%)” value [4, 9] was 100.45%. For the same compound, the “Stability in rat plasma: Accuracy (%)” value ([4]; 400 ng/mL, 15 days at −70°C) was 98.72% and the “Stability in rat plasma: Accuracy (%)” value [4, 10] was 99.79%.
